Data as given in US6723702B2, “Use of relaxin treat diseases related to vasoconstriction” (RAS Medical, Inc., priority 2000, dated 2004).

Columns and labels:
conscious rats = assay: Ringer's solution time control during chronic infusion of porcine RLX; assay type: in vivo, rat; details: RLX 4 μg/hour s.c. day 5
Method: At least 7 days after the implantation of vascular and bladder catheters, osmotic minipumps containing either porcine RLX (4 μg/hour) or vehicle (Ringer's solution) were implanted in intact, female rats (n=7 and 6 rats, respectively). Renal function and MAP were measured on day 5 of relaxin infusion (three 30-minute urine and midpoint blood collections). Next, an infusion of L-NAME (2 μg/minute, a substrate competitive inhibitor of NO synthase) was administered intravenously (i.v.) by infusion pump (Model 200, KD Scientific, Boston, Mass.). Four 1-hour urine collections with midpoint blood samples were collected for the assessment of GFR, ERPF, and ERVR during the L-NAME administration. Identical procedures were performed on additional animals chronically administered porcine RLX (n=5) or vehicle (n=5), except that ANG II (3 ng/minute) was infused rather than L-NAME. Finally, another four, age-matched control rats were administered Ringer's solution instead of either L-NAME or ANG II on day 5 of porcine RLX infusion.
Another group of rats chronically treated with porcine RLX was administered Ringer's solution instead of L-NAME or ANG II, and thus served as time controls. Neither MAP nor any of the renal parameters were consistently altered over the 6 hours or so of vehicle infusion, as shown in Table 3. Values are provided as mean±SEM. Relaxin, RLX. n=4 rats. Ringer's solution was infused at the same flow rate as L-NAME (Table 1) or ANG II (Table 2), 12.5 μl/min. RLX was infused at 4 μg/hour by osmotic minipump s.c.

[1] = system: ovariectomized or sham ovariectomized rats; assay: Chronic infusion of rhRLX on renal function in ovariectomized or sham ovariectomized rats; assay type: in vivo, rat; details: day 5 of infusion 4 μg/hour; comparable in ovariectomized and sham ovariectomized rats
Text: The details of the surgical procedures have been previously described. See, e.g., Conrad (1984) Kidney Int. 26:24-29; and Danielson and Conrad (1995) J. Clin. Invest. 96:482-490. […] The bladder catheter, a silastic-covered stainless steel cannula, was sewn into the urinary bladder with a purse-string suture and exteriorized through the ventral abdominal wall. This catheter was then plugged allowing the animal to urinate through the urethra while in her home cage. In the ovariectomized and sham ovariectomized animals, the ovaries were first ligated and then excised, or briefly manipulated, respectively, via a small incision made in the lateral abdominal wall immediately after the insertion of vascular and bladder catheters. All surgeries were conducted using aseptic technique. At least a 7-day recovery period was allowed before experimentation.
Six female rats each were subjected either to ovariectomy or sham ovariectomy immediately after the implantation of vascular and bladder catheters. Seven days later, renal function and MAP were assessed before the insertion of osmotic minipumps containing rhRLX. On day 5 of the relaxin infusion (4 μg/hour), renal function and MAP were again determined.

[2] = system: Alveolar macrophages or spleen cells; assay: VEGF expression by RT-PCR in non-wound macrophages and immune cells; assay type: in vivo, rat; details: following relaxin treatment
Text: Resident macrophages and immune cells from other non-wound sources were also harvested from vehicle- and relaxin-treated rats, and assayed for VEGF expression by RT-PCR.

db/db mice = assay: Full thickness wound healing in db/db mice; assay type: in vivo, mouse
Method: To determine whether rhRlx would improve healing in this model of impaired healing, standardized full thickness (1.5 cm×1.5 cm) wounds were made on the back of db/db mice (Jackson Laboratories, Bar Harbor, Me.). Mice were treated continuously for 21 days with rhRlx via a subcutaneously implanted Alzet pump at a dose of either 0.1 mg/kg/day or 0.2 mg/kg/day. Wound areas were measured in the course of the study. Healing is presented as wound area on day 14 relative to the original size of the wound on day 0 and is calculated as: % of original wound area=[Area on day 14/area on day 0]×100. […] Wound closure was expressed as “% of original wound area.” There were 8-20 animals per group. Wound closure was 91.4% in control group vs. 64% in the relaxin-treated group (p<0.05 by Student-Newman-Kuels test). The differences in the extent of wound healing were small among vehicle control and low dose of rhRlx treatment as well as PDGF (5 μg/wound/day for 5 days) treated mice.
At day 21-post surgery, the wounds were also excised and fixed in formalin prior to paraffin embedding. Sections from the middle of the wound were stained with Masson's trichrome and evaluated by two investigators. […] Inflammatory cell accumulation was present at the wound edges.
Neovascularization is a key component of granulation tissue formation. New blood vessel formation is stimulated by a variety of growth factors including bFGF, and VEGF. […] Immunohistochemical staining of the midsection of full thickness wounds using polyclonal antibody to von Willebrand factor VIII-related antigen was used to identify new blood vessels in the wounds.

human subjects = assay: Clinical trial: blood pressure and creatinine clearance; assay type: in vivo
Method: A clinical trial was conducted with human subjects, age 18 to 70 years. Subjects were treated with either 10 μg relaxin/kg body weight/day (minimum of 36 subjects), 25 μg relaxin/kg body weight/day (minimum of 72 subjects), or placebo (minimum of 72 subjects) for 24 weeks. Administration was by continuous subcutaneous infusion, using a pump. The relaxin was recombinant human relaxin (rhRlx). At various time points, diastolic blood pressure, systolic blood pressure, and creatinine clearance (as a measure of renal function) were measured. Creatinine clearance was calculated using the following formulas:
Creatinine clearance=((140−age)×weight (kg)/72×serum creatinine (mg/dL))×0.85
Creatinine clearance=(140−age)×weight (kg)/72×serum creatinine (mg/dL)
The change in each measured parameter was calculated (value at week x-week 0 value). […] The threshold for obtaining this effect was greater than 10 μg rhRLXN/kg/day. […] This latter result indicates an increase in blood flow.

[3] = system: small mesenteric arteries; assay: Myogenic reactivity of small mesenteric arteries; assay type: in vivo, rat; details: female rats chronically administered rhRLX (FIG. 15)
[4] = Baseline before Ringer's solution
[5] = Ringer's solution 12.5 μl/min, 60 min
[6] = Ringer's solution 12.5 μl/min, 120 min
[7] = Ringer's solution 12.5 μl/min, 180 min
[8] = Ringer's solution 12.5 μl/min, 240 min

Substance: Porcine RLX: lyophilized, purified porcine relaxin (Sherwood and O'Byrne 1974), dissolved in Ringer's solution
- ERPF (conscious rats; [4]): 12,927
- ERVR (conscious rats; [4]): 5.93
- GFR (conscious rats; [4]): 2997
- MAP (conscious rats; [4]): 119
- ERPF (conscious rats; [5]): 12,630
- ERVR (conscious rats; [5]): 6.19
- GFR (conscious rats; [5]): 3008
- MAP (conscious rats; [5]): 123
- ERPF (conscious rats; [6]): 12,347
- ERVR (conscious rats; [6]): 6.40
- GFR (conscious rats; [6]): 3086
- MAP (conscious rats; [6]): 121
- ERPF (conscious rats; [7]): 12,353
- ERVR (conscious rats; [7]): 6.52
- GFR (conscious rats; [7]): 3077
- MAP (conscious rats; [7]): 122
- ERPF (conscious rats; [8]): 12,090
- ERVR (conscious rats; [8]): 6.53
- GFR (conscious rats; [8]): 3223
- MAP (conscious rats; [8]): 121

Substance: rhRLX: recombinant human relaxin, identical in amino acid sequence to the product of the human H2 gene; A chain of 24, B chain of 29 amino acids
- effect on ERPF [1]: profound rise
- effect on ERVR [1]: fall
- effect on GFR [1]: profound rise
- VEGF expression [2]: did not show an upregulation
- Wound closure, % of original wound area (db/db mice; 0.2 mg/kg/day, day 14): 64%
- staining for von Willebrand factor VIII-related antigen (new blood vessels) (db/db mice; compared to wounds of vehicle treated animals): stronger positive staining
- wound histology, Masson's trichrome (db/db mice; day 21-post surgery): thick, cellular and vascular granulation tissue
- differences in the extent of wound healing vs vehicle control (db/db mice; low dose of rhRlx (0.1 mg/kg/day)): small
- renal function, as measured by creatinine clearance (human subjects; 10 μg rhRLXN/kg/day (FIG. 12)): improvement
- renal function, as measured by creatinine clearance (human subjects; 25 μg rhRLXN/kg/day (FIG. 13)): improvement
- diastolic pressure (human subjects; 25 μg/kg/day s.c. infusion, about week 2 through week 24 (FIG. 10)): reduced
- systolic pressure (human subjects; 25 μg/kg/day s.c. infusion, about week 2 through week 24 (FIG. 11)): reduced
- threshold for reducing diastolic and systolic pressure (human subjects; human, in vivo): greater than 10 μg rhRLXN/kg/day
- myogenic reactivity [3]: reduced myogenic reactivity
